Source: publication PMC12645469 (Nature structural & molecular biology, 2024)
Blank lines part the entries; values can stand above or below the molecule they belong to.

Legend:
NaDC3 [1] = molecular target: T1, NaDC3 (Homo sapiens, UniProt Q8WWT9); test: intrinsic tryptophan fluorescence quenching; assay type: binding
T1 sequence (Q8WWT9 1-602): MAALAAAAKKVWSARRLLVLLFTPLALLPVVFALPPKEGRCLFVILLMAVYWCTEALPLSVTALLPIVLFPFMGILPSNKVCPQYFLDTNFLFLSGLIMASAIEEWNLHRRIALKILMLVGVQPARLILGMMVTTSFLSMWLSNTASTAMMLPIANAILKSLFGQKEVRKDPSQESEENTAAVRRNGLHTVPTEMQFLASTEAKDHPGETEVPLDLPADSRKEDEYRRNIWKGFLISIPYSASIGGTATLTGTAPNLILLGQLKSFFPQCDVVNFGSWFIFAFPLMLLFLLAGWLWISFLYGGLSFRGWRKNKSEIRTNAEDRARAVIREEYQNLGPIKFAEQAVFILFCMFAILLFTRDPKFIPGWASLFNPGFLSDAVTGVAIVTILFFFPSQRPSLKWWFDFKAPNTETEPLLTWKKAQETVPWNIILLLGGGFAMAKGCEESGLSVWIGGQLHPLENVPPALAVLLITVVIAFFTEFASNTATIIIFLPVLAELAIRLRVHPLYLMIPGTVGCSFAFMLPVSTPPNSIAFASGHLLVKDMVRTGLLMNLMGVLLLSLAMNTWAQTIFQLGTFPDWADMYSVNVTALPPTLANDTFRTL

NaDC3 [2] = molecular target: T1, NaDC3; test: cryo-EM structure; assay type: cell-based
NaDC3 [3] = molecular target: NaDC3 (Homo sapiens, UniProt Q8WWT9, F93Y)
Chain of NaDC3 (Homo sapiens, UniProt Q8WWT9, F93Y) (Q8WWT9 whole entry F93Y): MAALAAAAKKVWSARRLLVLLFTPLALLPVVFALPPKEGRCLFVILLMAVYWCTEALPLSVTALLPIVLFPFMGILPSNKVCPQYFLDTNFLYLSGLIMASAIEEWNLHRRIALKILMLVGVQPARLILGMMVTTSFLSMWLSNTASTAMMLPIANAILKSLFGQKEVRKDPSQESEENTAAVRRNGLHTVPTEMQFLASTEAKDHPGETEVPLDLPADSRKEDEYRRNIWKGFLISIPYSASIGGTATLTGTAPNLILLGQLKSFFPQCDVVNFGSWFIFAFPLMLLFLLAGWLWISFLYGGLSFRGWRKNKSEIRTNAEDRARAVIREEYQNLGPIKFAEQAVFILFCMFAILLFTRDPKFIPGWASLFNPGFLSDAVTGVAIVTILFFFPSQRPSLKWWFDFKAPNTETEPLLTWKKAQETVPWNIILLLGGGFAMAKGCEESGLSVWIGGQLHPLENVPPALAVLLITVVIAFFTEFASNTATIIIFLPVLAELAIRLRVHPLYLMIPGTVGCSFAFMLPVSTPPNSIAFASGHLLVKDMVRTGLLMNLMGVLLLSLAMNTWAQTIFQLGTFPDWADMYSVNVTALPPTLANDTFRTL

NaDC3 [4] = molecular target: T1, NaDC3; test: biochemical
cryo-EM structure = molecular target: the molecule itself; test: cryo-EM structure

Molecule: COc1ncc(C)cc1CC[C@@](O)(CC(=O)O)C(=O)O [PF4a, PF-06761281]
IC50 (NaDC3 [2]): 39.2 µM

B1: human high affinity sodium-dicarboxylate cotransporter NaDC3 (natural protein)
chain: MAALAAAAKKVWSARRLLVLLFTPLALLPVVFALPPKEGRCLFVILLMAVYWCTEALPLSVTALLPIVLFPFMGILPSNKVCPQYFLDTNFLFLSGLIMASAIEEWNLHRRIALKILMLVGVQPARLILGMMVTTSFLSMWLSNTASTAMMLPIANAILKSLFGQKEVRKDPSQESEENTAAVRRNGLHTVPTEMQFLASTEAKDHPGETEVPLDLPADSRKEDEYRRNIWKGFLISIPYSASIGGTATLTGTAPNLILLGQLKSFFPQCDVVNFGSWFIFAFPLMLLFLLAGWLWISFLYGGLSFRGWRKNKSEIRTNAEDRARAVIREEYQNLGPIKFAEQAVFILFCMFAILLFTRDPKFIPGWASLFNPGFLSDAVTGVAIVTILFFFPSQRPSLKWWFDFKAPNTETEPLLTWKKAQETVPWNIILLLGGGFAMAKGCEESGLSVWIGGQLHPLENVPPALAVLLITVVIAFFTEFASNTATIIIFLPVLAELAIRLRVHPLYLMIPGTVGCSFAFMLPVSTPPNSIAFASGHLLVKDMVRTGLLMNLMGVLLLSLAMNTWAQTIFQLGTFPDWADMYSVNVTALPPTLANDTFRTL
stoichiometry N (cryo-EM structure): 2

Continued, values first:

Kd (NaDC3 [1]): 10.2 ± 5.6 µM
Molecule: CC(C(=O)O)C(C)C(=O)O (centres unmarked) [DMS, 2,3-dimethylsuccinate]

Km (NaDC3 [3]): 10.5 ± 5.9 µM
Kd (NaDC3 [4]): 17.6 ± 9.8 µM
Molecule: O=C(O)CCC(=O)O [Succ, succinate]
